The record followed here is ChEMBL document CHEMBL6078670, “Discovery of a potent and selective TRPC3 antagonist with neuroprotective effects” (Bioorg Med Chem, 2025).

In data set [1] the target is T1, Short transient receptor potential channel 3 (Homo sapiens) (UniProt Q13507).
T1 sequence (whole entry): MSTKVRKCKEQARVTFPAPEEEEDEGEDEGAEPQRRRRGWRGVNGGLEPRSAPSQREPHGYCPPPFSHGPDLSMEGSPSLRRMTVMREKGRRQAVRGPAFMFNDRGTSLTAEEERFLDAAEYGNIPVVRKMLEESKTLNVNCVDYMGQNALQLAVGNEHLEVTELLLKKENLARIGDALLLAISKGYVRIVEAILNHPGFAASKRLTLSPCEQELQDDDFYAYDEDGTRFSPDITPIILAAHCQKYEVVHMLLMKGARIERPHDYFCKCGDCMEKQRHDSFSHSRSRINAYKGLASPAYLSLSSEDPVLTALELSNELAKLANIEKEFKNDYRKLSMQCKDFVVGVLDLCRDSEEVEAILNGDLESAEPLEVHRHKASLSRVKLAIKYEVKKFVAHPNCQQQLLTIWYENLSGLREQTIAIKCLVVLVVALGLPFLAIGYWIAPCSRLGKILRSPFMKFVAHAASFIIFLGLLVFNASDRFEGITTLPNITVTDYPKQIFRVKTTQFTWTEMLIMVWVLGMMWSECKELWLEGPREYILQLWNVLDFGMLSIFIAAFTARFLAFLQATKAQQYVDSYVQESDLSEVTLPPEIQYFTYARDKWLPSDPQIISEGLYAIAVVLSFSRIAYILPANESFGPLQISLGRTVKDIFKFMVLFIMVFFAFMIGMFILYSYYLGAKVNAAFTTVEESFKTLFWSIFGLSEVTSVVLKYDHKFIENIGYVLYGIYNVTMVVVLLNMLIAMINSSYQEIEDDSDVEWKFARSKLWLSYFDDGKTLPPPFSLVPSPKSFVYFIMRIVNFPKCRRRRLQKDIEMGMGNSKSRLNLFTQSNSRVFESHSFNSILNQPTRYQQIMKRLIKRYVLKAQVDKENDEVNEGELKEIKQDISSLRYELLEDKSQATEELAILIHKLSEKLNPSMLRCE
The data set is described as follows: Antagonist activity at human TRPC3 expressed in HEK293 cells assessed as inhibition of carbachol-induced activity at 10 uM measured after 48 hrs by Whole-cell patch clamp electrophysiology relative to control. The data set is classed as cell-based.

In data set [2] the target is Short transient receptor potential channel 1 (Rattus norvegicus) (UniProt Q9QX01). The data set is described as follows: Antagonist activity at rat TRPC1 expressed in HEK293 cells assessed as inhibition of carbachol-induced activity at 10 uM measured after 48 hrs by Whole-cell patch clamp electrophysiology. The data set is classed as cell-based.
Chain of Short transient receptor potential channel 1 (Rattus norvegicus) (Q9QX01 whole entry): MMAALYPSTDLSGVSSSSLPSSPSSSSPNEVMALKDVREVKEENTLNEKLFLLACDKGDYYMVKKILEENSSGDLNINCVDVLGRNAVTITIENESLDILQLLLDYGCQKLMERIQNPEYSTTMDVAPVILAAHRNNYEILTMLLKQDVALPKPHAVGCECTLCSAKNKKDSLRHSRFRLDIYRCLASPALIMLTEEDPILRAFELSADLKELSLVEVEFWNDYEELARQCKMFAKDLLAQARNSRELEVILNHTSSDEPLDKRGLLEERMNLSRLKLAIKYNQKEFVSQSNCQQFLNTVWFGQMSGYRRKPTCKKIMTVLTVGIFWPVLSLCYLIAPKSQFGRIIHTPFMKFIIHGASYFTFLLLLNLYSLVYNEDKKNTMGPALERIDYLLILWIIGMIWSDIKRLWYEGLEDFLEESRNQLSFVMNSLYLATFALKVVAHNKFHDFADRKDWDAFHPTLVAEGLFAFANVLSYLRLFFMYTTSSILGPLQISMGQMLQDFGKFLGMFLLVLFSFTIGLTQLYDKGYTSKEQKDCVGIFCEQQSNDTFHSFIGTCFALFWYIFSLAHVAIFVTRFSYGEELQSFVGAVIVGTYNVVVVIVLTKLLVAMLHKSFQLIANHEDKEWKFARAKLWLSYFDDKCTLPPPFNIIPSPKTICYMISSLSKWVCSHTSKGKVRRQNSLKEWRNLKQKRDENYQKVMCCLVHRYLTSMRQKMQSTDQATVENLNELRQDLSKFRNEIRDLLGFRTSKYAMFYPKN
The target of data set [3] is T2, Short transient receptor potential channel 6 (Homo sapiens) (UniProt Q9Y210).
T2 sequence (whole entry): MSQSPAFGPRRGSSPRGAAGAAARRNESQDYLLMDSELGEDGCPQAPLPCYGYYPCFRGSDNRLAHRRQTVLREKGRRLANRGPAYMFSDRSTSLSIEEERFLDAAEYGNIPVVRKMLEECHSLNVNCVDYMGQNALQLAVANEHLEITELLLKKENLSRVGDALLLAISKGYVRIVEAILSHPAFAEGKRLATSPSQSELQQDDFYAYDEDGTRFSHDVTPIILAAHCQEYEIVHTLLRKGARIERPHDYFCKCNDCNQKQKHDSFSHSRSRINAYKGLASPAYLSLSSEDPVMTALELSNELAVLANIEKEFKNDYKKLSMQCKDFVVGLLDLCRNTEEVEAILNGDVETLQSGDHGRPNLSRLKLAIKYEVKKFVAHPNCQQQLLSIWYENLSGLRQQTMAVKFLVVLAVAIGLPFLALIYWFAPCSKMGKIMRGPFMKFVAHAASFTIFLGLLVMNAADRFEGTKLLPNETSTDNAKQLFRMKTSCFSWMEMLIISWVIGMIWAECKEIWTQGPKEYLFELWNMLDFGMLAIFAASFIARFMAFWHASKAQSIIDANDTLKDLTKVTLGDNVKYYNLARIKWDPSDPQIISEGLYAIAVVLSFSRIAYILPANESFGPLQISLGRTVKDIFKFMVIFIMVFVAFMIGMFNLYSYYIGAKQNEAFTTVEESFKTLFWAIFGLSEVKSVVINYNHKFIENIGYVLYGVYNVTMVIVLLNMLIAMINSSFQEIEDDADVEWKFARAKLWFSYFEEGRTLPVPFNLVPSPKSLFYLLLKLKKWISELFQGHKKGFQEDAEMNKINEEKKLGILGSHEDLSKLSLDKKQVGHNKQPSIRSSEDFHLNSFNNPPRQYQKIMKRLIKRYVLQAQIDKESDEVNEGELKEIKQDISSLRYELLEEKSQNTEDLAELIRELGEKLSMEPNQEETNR
Kind of data set: Antagonist activity at human TRPC6 expressed in HEK293 cells assessed as inhibition of carbachol-induced activity at 10 uM measured after 48 hrs by Whole-cell patch clamp electrophysiology. The data set is classed as cell-based.

The target of data set [4] is T3, Short transient receptor potential channel 7 (Homo sapiens) (UniProt Q9HCX4).
T3 sequence (whole entry): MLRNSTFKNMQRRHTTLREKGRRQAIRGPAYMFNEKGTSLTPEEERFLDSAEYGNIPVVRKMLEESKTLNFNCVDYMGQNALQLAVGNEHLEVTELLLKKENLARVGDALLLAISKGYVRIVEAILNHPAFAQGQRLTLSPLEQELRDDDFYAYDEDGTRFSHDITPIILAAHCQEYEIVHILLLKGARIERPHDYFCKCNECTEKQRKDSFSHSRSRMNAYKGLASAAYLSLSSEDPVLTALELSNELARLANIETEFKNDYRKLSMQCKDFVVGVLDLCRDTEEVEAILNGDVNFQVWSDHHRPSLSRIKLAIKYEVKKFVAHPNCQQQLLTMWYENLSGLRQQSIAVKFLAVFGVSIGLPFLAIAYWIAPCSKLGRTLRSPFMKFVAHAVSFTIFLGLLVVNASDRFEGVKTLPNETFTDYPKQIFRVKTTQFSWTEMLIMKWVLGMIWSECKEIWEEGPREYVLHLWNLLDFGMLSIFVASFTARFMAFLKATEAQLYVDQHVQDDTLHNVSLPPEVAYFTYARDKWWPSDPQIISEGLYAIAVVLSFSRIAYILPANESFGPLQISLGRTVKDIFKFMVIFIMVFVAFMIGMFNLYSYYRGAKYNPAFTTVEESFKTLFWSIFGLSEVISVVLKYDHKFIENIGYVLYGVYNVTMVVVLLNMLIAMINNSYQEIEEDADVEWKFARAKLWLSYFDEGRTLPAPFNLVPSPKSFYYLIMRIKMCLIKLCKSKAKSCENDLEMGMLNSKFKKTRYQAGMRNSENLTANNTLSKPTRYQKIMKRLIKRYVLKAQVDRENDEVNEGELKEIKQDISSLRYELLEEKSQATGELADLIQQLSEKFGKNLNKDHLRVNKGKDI
The data set is described as follows: Antagonist activity at human TRPC7 expressed in HEK293 cells assessed as inhibition of carbachol-induced activity at 10 uM measured after 48 hrs by Whole-cell patch clamp electrophysiology. The format is cell-based.

In data set [5] the target is Short transient receptor potential channel 1 (Mus musculus) (UniProt Q61056). Kind of data set: Antagonist activity at mouse TRPC1 expressed in HEK293 cells assessed as inhibition of carbachol-induced activity at 10 uM measured after 48 hrs by Whole-cell patch clamp electrophysiology. The data set is classed as cell-based.
Chain of Short transient receptor potential channel 1 (Mus musculus) (Q61056 whole entry): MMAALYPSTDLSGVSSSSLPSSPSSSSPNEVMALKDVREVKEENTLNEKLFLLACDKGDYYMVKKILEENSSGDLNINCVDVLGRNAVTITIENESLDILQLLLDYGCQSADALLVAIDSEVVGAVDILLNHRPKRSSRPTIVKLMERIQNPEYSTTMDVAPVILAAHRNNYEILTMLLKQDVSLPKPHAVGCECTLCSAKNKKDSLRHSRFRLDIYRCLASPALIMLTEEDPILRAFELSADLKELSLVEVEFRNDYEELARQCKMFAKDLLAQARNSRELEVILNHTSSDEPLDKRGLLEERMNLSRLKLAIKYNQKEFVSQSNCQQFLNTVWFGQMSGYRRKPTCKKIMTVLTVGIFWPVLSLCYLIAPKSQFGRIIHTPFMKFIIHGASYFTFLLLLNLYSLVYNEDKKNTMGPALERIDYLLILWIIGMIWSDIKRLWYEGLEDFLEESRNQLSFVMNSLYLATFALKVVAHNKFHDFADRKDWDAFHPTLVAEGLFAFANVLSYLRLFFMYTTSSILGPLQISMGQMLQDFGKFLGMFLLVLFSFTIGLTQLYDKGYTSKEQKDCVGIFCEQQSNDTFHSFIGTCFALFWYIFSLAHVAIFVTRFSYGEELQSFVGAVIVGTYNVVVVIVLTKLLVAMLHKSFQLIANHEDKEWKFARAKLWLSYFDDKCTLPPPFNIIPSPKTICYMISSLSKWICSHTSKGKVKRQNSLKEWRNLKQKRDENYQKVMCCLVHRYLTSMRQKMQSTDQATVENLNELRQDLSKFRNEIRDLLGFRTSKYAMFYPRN
Data set [6] addresses Transient receptor potential cation channel subfamily M member 8 (Rattus norvegicus) (UniProt Q8R455). Kind of data set: Antagonist activity at rat TRPM8 expressed in HEK293 cells assessed as inhibition of carbachol-induced activity at 10 uM measured after 48 hrs by Whole-cell patch clamp electrophysiology. The format is cell-based.
The test system of data set [7] is Hippocampal neurone. The data set is described as follows: Rescuing beta-amyloid induced neuronal cell damage in Sprague-Dawley rat primary hippocampal cell culture (composed of 60% primary neuron, 20% microglia and 20% astrocyte) assessed as decrease in soluble oligomeric Abeta-containing media (7PA2 cells) induced synaptic toxicity at 250 nM. The format is functional, cell-based.

A short description of data set [8]: Cytotoxicity against Sprague-Dawley rat primary hippocampal cells at 100 nM. The format is toxicity, cell-based. To be noted: hippocampal neurone, 0.1 µM.
A short description of data set [9]: Kinetic solubility of the compound in ph 7.4 PBS buffer measured after 24 hrs shaken by HPLC and UPLC system. The data set is classed as physicochemical. To be noted: read-out: Kinetic_solubility.

≈ marks a conversion by molar mass, not a printed value. Calls of active or inactive are those of the source. No cut-off for these calls is given here.

Chain of Transient receptor potential cation channel subfamily M member 8 (Rattus norvegicus) (Q8R455 whole entry, looked up): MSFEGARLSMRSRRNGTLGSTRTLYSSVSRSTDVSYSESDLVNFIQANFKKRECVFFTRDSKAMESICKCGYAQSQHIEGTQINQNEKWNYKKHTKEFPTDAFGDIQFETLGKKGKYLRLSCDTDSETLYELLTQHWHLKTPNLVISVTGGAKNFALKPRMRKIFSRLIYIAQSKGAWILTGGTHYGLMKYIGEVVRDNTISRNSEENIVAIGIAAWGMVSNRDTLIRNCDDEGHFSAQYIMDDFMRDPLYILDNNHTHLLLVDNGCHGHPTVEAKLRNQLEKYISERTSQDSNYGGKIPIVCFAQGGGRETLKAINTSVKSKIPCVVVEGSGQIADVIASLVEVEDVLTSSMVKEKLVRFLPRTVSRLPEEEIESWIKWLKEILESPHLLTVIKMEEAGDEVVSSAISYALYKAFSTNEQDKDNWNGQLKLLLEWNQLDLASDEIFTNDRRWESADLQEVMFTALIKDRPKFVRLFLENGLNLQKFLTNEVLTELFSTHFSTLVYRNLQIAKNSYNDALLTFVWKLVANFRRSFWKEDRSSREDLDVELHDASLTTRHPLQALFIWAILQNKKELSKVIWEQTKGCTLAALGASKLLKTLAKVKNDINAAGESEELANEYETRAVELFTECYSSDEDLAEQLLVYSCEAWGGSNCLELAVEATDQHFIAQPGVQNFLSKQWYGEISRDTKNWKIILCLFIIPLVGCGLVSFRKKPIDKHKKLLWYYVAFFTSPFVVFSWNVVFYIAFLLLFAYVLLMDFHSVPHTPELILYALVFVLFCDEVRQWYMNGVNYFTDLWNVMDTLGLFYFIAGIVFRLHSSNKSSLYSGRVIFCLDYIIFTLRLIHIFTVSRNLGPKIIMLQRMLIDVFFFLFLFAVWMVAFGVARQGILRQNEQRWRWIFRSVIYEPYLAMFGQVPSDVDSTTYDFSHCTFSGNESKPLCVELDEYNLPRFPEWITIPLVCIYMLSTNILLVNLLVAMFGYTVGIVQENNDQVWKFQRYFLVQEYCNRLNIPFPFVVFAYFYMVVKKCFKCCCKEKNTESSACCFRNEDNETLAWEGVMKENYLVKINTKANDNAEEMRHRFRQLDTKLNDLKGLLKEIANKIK

Consider `CCNC(=O)c1cnn(-c2ccc(-n3ccc(OC)c(Cl)c3=O)cc2)c1C(F)(F)F`, for which the inhibition in [1] is under 80%.
The same measure, in the same setting: the value for `CCNC(=O)c1cnn(-c2ccc(-n3ccc(Cl)c(Cl)c3=O)cn2)c1C(F)(F)F` was under 80%.
As to `CC(=O)c1cnn(-c2ccc(-n3ccc(Cl)c(Cl)c3=O)cc2)c1C(F)(F)F`, the inhibition in [1] (filed as antagonist) was over 80%.
The same measure, in the same setting: the value for `CCNC(=O)c1cn(-c2ccc(-n3ccc(Cl)c(Cl)c3=O)cc2)nc1C(F)(F)F` was over 97%.
As to `CCC(=O)Nc1cnn(-c2ccc(-n3ccc(Cl)c(Cl)c3=O)cc2)c1C(F)(F)F`, the inhibition in data set [1] (filed as antagonist) is over 80%.
For `CCNC(=O)c1cnn(-c2ccc(-n3ccc(Cl)c(Cl)c3=O)cc2)c1S(C)(=O)=O`, the inhibition in data set [1] is under 80%.
On the same count and under the same terms, next, `CCNC(=O)c1sc(-c2ccc(-n3ccc(Cl)c(Cl)c3=O)cc2)nc1C(F)(F)F`: under 80%; `CS(=O)(=O)c1cnn(-c2ccc(-n3ccc(Cl)c(Cl)c3=O)cc2)c1C(F)(F)F`: under 80%.
Consider `CCN(CC)C(=O)c1cnn(-c2ccc(-n3ccc(Cl)c(Cl)c3=O)cc2)c1C(F)(F)F`, for which the inhibition in data set [1] (filed as antagonist) is over 90%.
Same read-out and setting: next, `CCNC(=O)c1cnn(-c2ccc(-n3ccc(Cl)c(Cl)c3=O)cc2)c1C#N`: over 80%.
Consider `CCNC(=O)c1cnn(-c2ccc(-n3ccc(Cl)c(Cl)c3=O)cc2)c1Cl`, for which, in data set [1], the inhibition was under 80%.
Still for that read-out and setting: the value for `CCOCc1cnn(-c2ccc(-n3ccc(Cl)c(Cl)c3=O)cc2)c1C(F)(F)F` was under 80%.
In the case of `CC(C)CNC(=O)c1cnn(-c2ccc(-n3ccc(Cl)c(Cl)c3=O)cc2)c1C(F)(F)F`, in data set [1] (filed as antagonist), the inhibition was over 90%.
Consider `CCN(CC)Cc1cnn(-c2ccc(-n3ccc(Cl)c(Cl)c3=O)cc2)c1C(F)(F)F`, for which the inhibition in data set [1] (filed as antagonist) is over 80%.
The same measure, in the same setting: the value for `CCNC(=O)c1cnn(-c2ccc(-n3ccc(C(F)(F)F)c(Cl)c3=O)cc2)c1C(F)(F)F` was over 80%; that for `CCNC(=O)c1cnn(-c2ccc(-n3ccc(O)c(Cl)c3=O)cc2)c1C(F)(F)F` was over 90%; that for `CCNC(=O)c1nn(-c2ccc(-n3ccc(Cl)c(Cl)c3=O)cc2)nc1C(F)(F)F` was over 80%.
`CCNC(=O)c1cnn(-c2ccc(-n3ccc(Cl)c(Br)c3=O)cc2)c1C(F)(F)F`: in [1], the inhibition is under 80%.
In the case of `CCNC(=O)c1cnn(-c2ccc(-n3ccc(Cl)c(Cl)c3=O)cc2)c1`, in [1] (filed as antagonist), the inhibition was over 97%.
Same read-out and setting: next, `CCc1nnc(-c2cnn(-c3ccc(-n4ccc(Cl)c(Cl)c4=O)cc3)c2C(F)(F)F)o1`: over 90%.
As for `CCCC(=O)c1cnn(-c2ccc(-n3ccc(Cl)c(Cl)c3=O)cc2)c1C(F)(F)F`, the inhibition in [1] was under 80%.
For `O=C(NC1CC1)c1cnn(-c2ccc(-n3ccc(Cl)c(Cl)c3=O)cc2)c1C(F)(F)F`, the inhibition in data set [1] is under 80%.
Still for that read-out and setting: next, `CCNC(=O)c1nnn(-c2ccc(-n3ccc(Cl)c(Cl)c3=O)cc2)c1C(F)(F)F`: under 80%; `NC(=O)c1cnn(-c2ccc(-n3ccc(Cl)c(Cl)c3=O)cc2)c1C(F)(F)F`: under 80%.
As to `O=C(c1cnn(-c2ccc(-n3ccc(Cl)c(Cl)c3=O)cc2)c1C(F)(F)F)N1CCCC1`, in data set [1] (filed as antagonist), the inhibition is over 80%.
With `CCCCNC(=O)c1cnn(-c2ccc(-n3ccc(Cl)c(Cl)c3=O)cc2)c1C(F)(F)F`, the inhibition in data set [1] was under 80%.
The same measure, in the same setting: next, `CCCNC(=O)c1cnn(-c2ccc(-n3ccc(Cl)c(Cl)c3=O)cc2)c1C(F)(F)F`: under 80%.
With `CCOC(=O)c1cnn(-c2ccc(NC(=O)C(Cl)=C(Cl)Cl)cc2)c1C(F)(F)F`, the result in data set [2], in [3], in [4], in [5] and in data set [6] was inactive. Also, in [1] (filed as antagonist), the inhibition is over 80%.
As to `CCNC(=O)c1cnn(-c2ccc(-n3ccc(Cl)c(Cl)c3=O)cc2)c1C(F)(F)F`, in [7], the outcome was Active. The outcome in data set [2], in data set [3], in data set [4], in data set [5] and in data set [6] was inactive. Further, the Activity result in data set [8] was “Non-toxic”. For the same compound, the inhibition in data set [1] (filed as antagonist) was over 80%. Also, the solubility kinetic at 24 h in data set [9] is 144 µM (≈ 64.1 µg/mL).
In the case of `CC(C)NC(=O)c1cnn(-c2ccc(-n3ccc(Cl)c(Cl)c3=O)cc2)c1C(F)(F)F`, the inhibition in [1] is under 80%.
For `CCNC(=O)c1ncn(-c2ccc(-n3ccc(Cl)c(Cl)c3=O)cc2)c1C(F)(F)F`, the inhibition in [1] (filed as antagonist) was over 90%.
Same read-out and setting: the value for `CNC(=O)c1cnn(-c2ccc(-n3ccc(Cl)c(Cl)c3=O)cc2)c1C(F)(F)F` was over 80%.
